Measured values published in patent publication US5834463A, “Condensed heterocyclic compounds, their production and use” (Takeda Chemical Industries, Ltd., priority 1994, dated 1998).

System: ethanol-induced sleep in mice
Test: Effects on ethanol-induced sleep in mice
Assay type: in vivo, ICR male mice
Conditions: 30 mg/kg orally, 30 minutes before 25% ethanol i.p.; 8 animals
Description: (F) Effects on ethanol-induced sleep in mice
ICR male mice of 4-5 week old were orally administered with test compounds suspended in a physiological saline solution or 5% gum arabic solution at a dosage of 30 mg/kg (8 animals in each group). Thirty minutes later, test animals were intrapritoneally injected with 25% ethanol (0.2 mL/10 g). The duration of sleep was measured as the time from the onset of righting reflex until the righting reflex was regained.

First: Nc1ccc(CN2C(=O)C3CCCC3=Nc3ccccc32)cc1 (stereo not shown) [compound 17]
Second: CN1c2ccccc2N(Cc2ccccc2)C(=O)[C@H]2CCC[C@H]21 (relative stereo) [compound 63]
The “Percentage (%) of sleeping time relative to control” value of the first is lower: 33% for the first, 37% for the second.

Compared with `CC(=O)N1c2ccccc2N(Cc2ccccc2)C(=O)[C@H]2CCC[C@H]21` (relative stereo) [compound 64], `O=C1[C@H]2CCC[C@H]2Nc2ccccc2N1Cc1ccc(Cl)cc1Cl` (relative stereo) [compound 37] is higher in “Percentage (%) of sleeping time relative to control” value: 41% for the first, 145% for the second.

With `O=C1N(Cc2ccccc2)c2ccccc2NC2CCCC12Cc1ccccc1` (stereo not shown) [compound 29] the “Percentage (%) of sleeping time relative to control” value was 50%.

Target: T1, human GnRH receptor (Homo sapiens, UniProt P30968)
T1 construct: expressed in transfected cells; host or cells: CHO (Chinese Hamster Ovary) cells, membrane fraction
T1 sequence (P30968 1-328): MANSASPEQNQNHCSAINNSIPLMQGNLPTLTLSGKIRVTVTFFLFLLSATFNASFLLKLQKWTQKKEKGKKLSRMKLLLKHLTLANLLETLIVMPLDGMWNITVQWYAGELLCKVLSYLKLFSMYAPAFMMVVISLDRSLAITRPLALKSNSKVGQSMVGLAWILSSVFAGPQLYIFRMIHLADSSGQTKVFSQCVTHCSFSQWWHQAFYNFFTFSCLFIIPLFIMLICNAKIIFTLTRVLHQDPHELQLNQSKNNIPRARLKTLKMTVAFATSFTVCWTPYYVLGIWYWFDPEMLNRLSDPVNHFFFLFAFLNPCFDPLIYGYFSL
Test: Test for inhibition of ^125 I-leuprorelin binding to human GnRH receptor
Conditions: membrane fraction of CHO cells expressing human GnRH receptors, 25° C., 60 minutes, read-out: Binding Inhibitory Activity (IC50, μM) for human GnRH receptor
Description: (A) Preparation of ^125 I-leuprorelin
Ten μl of a 3×10^-4 M aqueous solution of leuprorelin and 10μl of 0.01 mg/ml lactoperoxidase in 0.1M Hepes buffer (pH7.4) were put in a tube, to which was added 10 μl of an Na^125 I solution (37 MBq). The mixture was stirred, to which was added 10 μl of 0.001% H2 O2, followed by allowing the reaction to proceed for 20 minutes at room temperature. To the reaction mixture was added 700 μl of a 0.05% TFA solution to stop the reaction. The product of was purified by means of a reverse-phase HPLC. Conditions of HPLC were as follows:
(D) Preparation of membrane fraction of CHO (Chinese Hamster Ovary) cells containing human GnRH receptors
CHO cells (10^9) expressing human GnRH receptors were suspended in a phosphate-buffered saline supplemented with 5 mM EDTA. The suspension was subjected to centrifugal separation for 5 minutes at 100×g. To the pellet of cells was added 10 ml of a homogenate buffer for cells (10 mM NaHCO3, 5 mM EDTA, pH 7.5), which was homogenated by using a Polytron homogenizer. Centrifugal separation was conducted for 15 minutes at 400×g. The supernatant was taken into an ultracentrifugal tube, which was subjected to centrifuge for one hour at 100,000×g to give precipitate of the membrane fraction. The precipitate was suspended in 2 ml of the assay buffer, which was centrifuged for one hour at 100,000×g. The membrane fraction recovered as precipitate was again suspended in 20 ml of the assay buffer, which was distributed to vials and stored at -80° C. until used.
(E) Determination of inhibitory rate of ^125 I-leuprorelin binding
In the cases of using rat and human pituitary membrane fractions prepared in (B) and (D), they were respectively diluted with the assay buffer to 200 μg/ml and 188 μl each was distributed to tubes. In the case of using bovine pituitary membrane fraction prepared in (C), it was diluted with the assay buffer to 750 μg/ml and 188 μl each was distributed into tubes. In the case where the membrane fraction of anterior lobes of rat pituitary gland was used, 2 μl of a 0.1 mM compound dissolved in 60% DMSO (dimethylsulfoxide) and 10 μl of 38 nM ^125 I-leuprorelin were added thereto simultaneously. In the case where the membrane fraction of anterior lobes of bovine pituitary gland and the membrane fraction derived from the CHO cells expressing human GnRH receptors were used, 2 μl of a 2 mM compound dissolved in 60% DMSO and 10 μl of 38 nM ^125 I-leuproprelin were added simultaneously. For determining the maximum binding amount, a solution for reaction supplemented with 2 μl of 60% DMSO and 10 μl of 38 nM ^125 I-leuprorelin was prepared. And, for determining the amount of non-specific binding, a solution for reaction supplemented with 2 μl of 100 μM leuprorelin dissolved in 60% DMSO and 10 μl of 38 nM ^125 I-leuprorelin were also prepared simultaneously.
In the cases where membrane fractions of anterior lobes of rat and bovine pituitary were used, reaction was allowed to proceed at 4° C. for 90 minutes, while in the case where the membrane fraction derived from the CHO cells expressing human GnRH receptor was used, reaction was allowed to proceed at 25° C. for 60 minutes. The reaction mixtures were respectively subjected to filtration under sucking with Whatman glass filter (GF-F) processed with polyethyleneimine. After completing the filtration, radioactivity of the ^125 I-leuprorelin remaining on the filter paper was measured with a γ-counter.
By calculation of (TB-SB)/(TB-NSB)×100 (SB: radioactivity obtained when a compound was added, TB: radioactivity for the maximum binding, NSB: radioactivity for the non-specific binding), the binding inhibitory rate of each test compound was determined. Besides, the inhibitory rates were determined by changing the concentrations of test compounds, and the concentration of a test compound inhibiting the specific binding by 50% (IC50 value) was calculated by way of Hill plot.

Going from `O=C1c2ccccc2C(=O)N1CC(=O)N1c2ccccc2N(Cc2ccc3ccccc3c2)C(=O)[C@H]2CCC[C@H]21` (relative stereo) [compound 114] to `O=C1c2ccccc2C(=O)N1CC(=O)N1c2ccccc2N(Cc2cccc3ccccc23)C(=O)[C@H]2CCC[C@H]21` (relative stereo) [compound 113], the IC50 rises from 0.6 µM to 1 µM (1.7-fold).

`CC1=C(C)C(=O)N(CC(=O)N2c3ccccc3N(Cc3ccccc3)C(=O)[C@H]3CCC[C@H]32)C1=O` (relative stereo) [compound 173] and `O=C1c2cccnc2C(=O)N1CC(=O)N1c2ccccc2N(Cc2ccccc2)C(=O)[C@H]2CCC[C@H]21` (relative stereo) [compound 78] are within 1.5-fold of each other in IC50: 7 µM for the first, 5 µM for the second.

`O=C1c2ccc(F)cc2C(=O)N1CC(=O)N1c2ccccc2N(Cc2ccccc2)C(=O)[C@H]2CCC[C@H]21` (relative stereo) [compound 70] and `O=C1c2ccccc2C(=O)N1CC(=O)N1c2ccccc2N(Cc2cccc([N+](=O)[O-])c2)C(=O)[C@H]2CCC[C@H]21` (relative stereo) [compound 209] are the same in IC50: 2 µM for the first, 2 µM for the second.

First: O=C1c2ccccc2C(=O)N1CC(=O)N1c2ccccc2N(Cc2ccc([N+](=O)[O-])cc2)C(=O)[C@H]2CCC[C@H]21 (relative stereo) [compound 195]
Second: O=C1c2ccccc2C(=O)N1CC(=O)N1c2ccccc2N(Cc2ccccn2)C(=O)[C@H]2CCC[C@H]21 (relative stereo) [compound 118]
The IC50 of the first is 4-fold lower: 0.5 µM for the first, 2 µM for the second.

Going from `O=C1C2CCCCC2C(=O)N1CC(=O)N1c2ccccc2N(Cc2ccccc2)C(=O)C2CCCC21` (stereo not shown) [compound 174] to `O=C1C2=C(CCCC2)C(=O)N1CC(=O)N1c2ccccc2N(Cc2cccc3ccccc23)C(=O)[C@H]2CCC[C@H]21` (relative stereo) [compound 170], the IC50 falls from 5 µM to 0.6 µM (8.3-fold).

Going from `O=C1c2ccccc2C(O)N1CC(=O)N1c2ccccc2N(Cc2ccccc2)C[C@H]2CCC[C@H]21` (stereo partly shown) [compound 66] to `O=C1c2ccccc2C(=O)N1CC(=O)N1c2ccccc2N(Cc2ccc3ccccc3n2)C(=O)[C@H]2CCC[C@H]21` (relative stereo) [compound 184], the IC50 falls from 8 µM to 0.8 µM (10-fold). The second is the more potent here.

System: not given
Test: not given
Conditions: for example, prostatic cancer; cited from earlier work

For `CCNC(=O)[C@@H]1CCCN1C(=O)[C@H](CCCNC(=N)N)NC(=O)[C@H](CC(C)C)NC(=O)[C@@H](CC(C)C)NC(=O)[C@H](Cc1ccc(O)cc1)NC(=O)[C@H](CO)NC(=O)[C@H](Cc1c[nH]c2ccccc12)NC(=O)[C@H](Cc1c[nH]cn1)NC(=O)[C@@H]1CCC(=O)N1` [Leuprorelin acetate], the “anti-tumor activity against hormone-dependent cancers” value is listed as “shows anti-tumor activity”.

Same assay, conditions: repeated administration; cited from earlier work

In the case of `CCNC(=O)[C@@H]1CCCN1C(=O)[C@H](CCCNC(=N)N)NC(=O)[C@H](CC(C)C)NC(=O)[C@@H](CC(C)C)NC(=O)[C@H](Cc1ccc(O)cc1)NC(=O)[C@H](CO)NC(=O)[C@H](Cc1c[nH]c2ccccc12)NC(=O)[C@H](Cc1c[nH]cn1)NC(=O)[C@@H]1CCC(=O)N1` [Leuprorelin acetate], the productivity of testosterone is given as “reduce the productivity of testosterone to the level of castration”.

System: GnRH receptor
Test: not given
Conditions: relative to GnRH obtained from natural sources; cited from earlier work

In the case of `CCNC(=O)[C@@H]1CCCN1C(=O)[C@H](CCCNC(=N)N)NC(=O)[C@H](CC(C)C)NC(=O)[C@@H](CC(C)C)NC(=O)[C@H](Cc1ccc(O)cc1)NC(=O)[C@H](CO)NC(=O)[C@H](Cc1c[nH]c2ccccc12)NC(=O)[C@H](Cc1c[nH]cn1)NC(=O)[C@@H]1CCC(=O)N1` [leuprorelin], the “affinity to GnRH receptor” value is listed as “higher affinity to GnRH receptor than GnRH obtained from natural sources”.

System: pentobarbital-induced sleep in mice
Test: Effect on pentobarbital-induced sleep in mice
Assay type: in vivo, ICR male mice
Conditions: 10 mg/kg orally, 30 minutes before sodium pentobarbital 55 mg/kg i.p.
Description: (G) Effect on pentobarbital-induced sleep in mice
ICR male mice of 5-6 week old were orally administered with test samples dissolved or suspended in a physiological saline solution or 5% gum solution dosage of 100 mg/kg (2-3 animals in each group), and behavioral observation was conducted at 15, 30, 60 and 120 minutes after the administration.
As the next stage, ICR male mice of 4-5 week old were orally administered with test samples dissolved or suspended in a physiological saline solution or 5% gum arabic solution at a dosage which was one rank lower than the dosage determined as above (8 animals in each group). Thirty minutes after the administration, test animals were administered intraperitoneally with sodium pentobarbital at a dosage of 55 mg/kg. The duration of sleep was measured as the time from the onset of righting reflex until the righting reflex was regained.

In the case of `O=C1C2CCCC2=Nc2ccccc2N1Cc1ccncc1` (stereo not shown) [compound 9], the “Percentage (%) of sleeping time relative to control” value is reported as 176%.

Same assay, conditions: 20 mg/kg orally, 30 minutes before sodium pentobarbital 55 mg/kg i.p.

Compared with `CN1c2ccccc2N(Cc2ccccc2)C[C@H]2CCC[C@H]21` (relative stereo) [compound 45], `O=C1C2CCCC2=Nc2ccccc2N1Cc1ccccc1F` (stereo not shown) [compound 5] is higher in “Percentage (%) of sleeping time relative to control” value: 124% for the first, 140% for the second.

Same assay, conditions: 50 mg/kg orally, 30 minutes before sodium pentobarbital 55 mg/kg i.p.

Compared with `O=C1C2CCCC2=Nc2ccccc2N1Cc1ccc(Cl)cc1` (stereo not shown) [compound 4], `O=C1[C@H]2CCC[C@H]2Nc2ccccc2N1Cc1ccc(Cl)cc1Cl` (relative stereo) [compound 37] is lower in “Percentage (%) of sleeping time relative to control” value: 140% for the first, 128% for the second.
